The text below walks through data of US20230310409A1, “TREATING RHEUMATOID ARTHRITIS” (BRISTOL-MYERS SQUIBB COMPANY, priority 2020, published 2023).

Common to all, as to format: in vivo, mice (male DBA/1)
Data set [1] relates to collagen-induced arthritis model. The data set is described as follows: Collagen-induced arthritis in mice, clinical score (arthritic index). The conditions noted are these: for disease score: mouse CIA, Compound (I) 0.25 mg/kg oral once daily from day 21, mEnbrel 10 mg/kg i.p. twice per week from primary immunization, combination 0.25+10 mg/kg.
Description: Male DBA/1 mice (9-11 weeks of age, Harlan) were primed with bovine type II collagen (Chondrex #20021) in adjuvant (Sigma adjuvant system, Sigma Aldrich #S6322) at the base of tail on day 1 and on day 21. Mice were randomized into 7 groups based on body weight and assigned as either vehicle (10% ethanol; 45% PEG 300; 5% pluronic F-68; 40% 20 mM citrate buffer); Compound (I) at 0.25 and 2.5 mg/kg or mEnbrel (mouse Enbrel) at 10 mg/kg or combination of Compound (I) with mEnbrel at 0.25+10 mg/kg and 2.5+10 mg/kg or mCTLA4 (mouse CTLA4-Ig) (as a reference compound) at 3 mg/kg dose level. Compound (I) was administered from day 21 by oral gavage once daily whereas mEnbrel and mCTLA4 were administered from day of primary immunization, twice per week by intraperitoneal injection. Disease activity was monitored and scored twice per week using standard criteria (0: normal; 1: mild, but definite redness and swelling of the ankle or wrist, or apparent redness and swelling limited to individual digits regardless of number of affected digits; 2: moderate redness and swelling of ankle or wrist; 3: severe redness and swelling of the entire paw including digits; 4: maximally inflamed limb with involvement of multiple joints).
Compound (I) was tested in the semi-therapeutic mode of treatment in mouse collagen-induced arthritis model. Dosing initiated after the antigen boost (from day 21) and continued up to day 45.
Compound (I) was tested in combination with the TNFα blocking agent mEnbrel in the collagen-induced arthritis model where dosing of Compound (I) was initiated after the antigen boost whereas mEnbrel was administered from the day of primary immunization.
Mice were treated with respective treatment. During the entire study course (A) and at the time of termination (B) disease was assessed by measuring the clinical score (arthritic index). Data are from one experiment with 10 mice per group. ***P<0.0001 versus vehicle by one-way ANOVA with a Dunnett test.
The next data set relates to IL-6. Nature of the data set: Plasma IL-6 at termination in collagen-induced arthritis model. The conditions noted are these: Compound (I) alone, 0.25 and 2.5 mg/kg.
The subject of another data set is anti-collagen antibodies. The data set is described as follows: Serum anti-collagen antibody titer at termination in collagen-induced arthritis model. The conditions noted are these: Compound (I) alone, 0.25 and 2.5 mg/kg. On the procedure:
(§1) Male DBA/1 mice (9-11 weeks of age, Harlan) were primed with bovine type II collagen (Chondrex #20021) in adjuvant (Sigma adjuvant system, Sigma Aldrich #S6322) at the base of tail on day 1 and on day 21. Mice were randomized into 7 groups based on body weight and assigned as either vehicle (10% ethanol; 45% PEG 300; 5% pluronic F-68; 40% 20 mM citrate buffer); Compound (I) at 0.25 and 2.5 mg/kg or mEnbrel (mouse Enbrel) at 10 mg/kg or combination of Compound (I) with mEnbrel at 0.25+10 mg/kg and 2.5+10 mg/kg or mCTLA4 (mouse CTLA4-Ig) (as a reference compound) at 3 mg/kg dose level. […] Disease activity was monitored and scored twice per week using standard criteria (0: normal; 1: mild, but definite redness and swelling of the ankle or wrist, or apparent redness and swelling limited to individual digits regardless of number of affected digits; 2: moderate redness and swelling of ankle or wrist; 3: severe redness and swelling of the entire paw including digits; 4: maximally inflamed limb with involvement of multiple joints). […]
FIG. 2: Inhibition of circulating markers by Compound (I) alone and in combination with mEnbrel. […] At the time of termination (A) serum anti-collagen antibody titer and (B) plasma IL-6 was assessed. […]

Data set [2] can be described thus: Pharmacokinetics of Compound (I) in CIA model, whole blood (DBS) drug concentration by LCMS. On the procedure: as §1
FIG. 3: Pharmacokinetic analysis of Compound (I) in CIA model of arthritis. […] Following 19 days of dosing, whole blood was drawn at different time points and DBS drug concentrations were measured by LCMS. […]

Description for IL-6: Male DBA/1 mice (9-11 weeks of age, Harlan) were primed with bovine type II collagen (Chondrex #20021) in adjuvant (Sigma adjuvant system, Sigma Aldrich #S6322) at the base of tail on day 1 and on day 21. Mice were randomized into 7 groups based on body weight and assigned as either vehicle (10% ethanol; 45% PEG 300; 5% pluronic F-68; 40% 20 mM citrate buffer); Compound (I) at 0.25 and 2.5 mg/kg or mEnbrel (mouse Enbrel) at 10 mg/kg or combination of Compound (I) with mEnbrel at 0.25+10 mg/kg and 2.5+10 mg/kg or mCTLA4 (mouse CTLA4-Ig) (as a reference compound) at 3 mg/kg dose level. Compound (I) was administered from day 21 by oral gavage once daily whereas mEnbrel and mCTLA4 were administered from day of primary immunization, twice per week by intraperitoneal injection. Disease activity was monitored and scored twice per week using standard criteria (0: normal; 1: mild, but definite redness and swelling of the ankle or wrist, or apparent redness and swelling limited to individual digits regardless of number of affected digits; 2: moderate redness and swelling of ankle or wrist; 3: severe redness and swelling of the entire paw including digits; 4: maximally inflamed limb with involvement of multiple joints). […] At the time of termination (A) serum anti-collagen antibody titer and (B) plasma IL-6 was assessed. […]

With `Cc1c(-c2[nH]c3ccc(C4CCN(CC(N)=O)CC4)cc3c2C(C)C)cn2ncnc2c1C` [Compound (I), 2-(4-(2-(7,8-dimethyl-[1,2,4]triazolo[1,5-a]pyridin-6-yl)-3-isopropyl-1H-indol-5-yl)piperidin-1-yl)acetamide], in data set [1] (Compound (I) alone, 0.25 and 2.5 mg/kg oral once daily from day 21), the “arthritic score at the termination of the study” value was “Significant dose dependent suppression”. Also, the disease score in data set [1] is on record as 82 % of control. Besides, in data set [1] (semi-therapeutic mode, dosing from day 21 up to day 45, 0.25 and 2.5 mg/kg oral once daily), the “inhibition of clinical signs of disease, earliest time” value turned out to be 7 days post dosing. Also, the “plasma IL-6” value in the data set on IL-6 is recorded as “dose dependent reduction”. Also, in the data set on anti-collagen antibodies, the serum anti-collagen-antibody titer entry was “dose dependent reduction”. The “whole blood drug concentration” value in data set [2] (0.25 and 2.5 mg/kg oral, after 19 days of dosing, 1-24 h post dose) is given as “dose dependent increase”. Also, in data set [2] (co-treatment with mEnbrel 10 mg/kg), the “whole blood concentration of Compound (I) in the presence of mEnbrel” value was “not altered”.

B1: mEnbrel: fully mouse version of Enbrel: mouse TNFR1B extracellular domain (Val-23 to Gly-258) fused to mouse IgG2A, TNFα blocking agent (protein, listed as Mus musculus)
chain: MRAWIFFLLCLAGRALAVPAQVVLTPYKPEPGYECQISQEYYDRKAQMCCAKCPPGQYVKHFCNKTSDTVCADCEASMYTQVWNQFRTCLSCSSSCTTDQVEIRACTKQQNRVCACEAGRYCALKTHSGSCRQCMRLSKCGPGFGVASSRAPNGNVLCKACAPGTFSDTTSSTDVCRPHRICSILAIPGNASTDAVCAPESPTLSAIPRTLYVSQPEPTRSQPLDQEPGPSQTPSILTSLGSTPIIEQSTKGGEPRGPTIKPCPPCKCPAPNLLGGPSVFIFPPKIKDVLMISLSPIVTCVVVDVSEDDPDVQISWFVNNVEVHTAQTQTHREDYNSTLRVVSALPIQHQDWMSGKEFKCKVNNKDLPAPIERTISKPKGSVRAPQVYVLPPPEEEMTKKQVTLTCMVTDFMPEDIYVEWTNNGKTELNYKNTEPVLDSDGSYFMYSKLRVEKKNWVERNSYSCSVVHEGLHNHHTTKSFSRTPGK
modifications: SIGNAL (1)..(17) Osteonectin signal sequence; (18)..(253) Mouse TNFR1B (V23 - G258); (254)..(486) Mouse IgG2a
With B1, the disease score in data set [1] was 56 % of control.
